Laboratory results reported in patent publication US12458634B2, “Stabilized liquid formations containing picosulfate” (Ferring B.V., priority 2016, dated 2025).

Test: Chemical stability of sodium picosulfate liquid formulations on storage (UPLC/HPLC assay of sodium picosulfate and degradation products)
Conditions: for Effect of the anti-oxidant on rate of formation of Picosulfate Benzyl Alcohol: formulations containing sodium picosulfate, magnesium citrate and malic acid; for Effect of the anti-oxidant on initial rate of formation of Picosulfate Benzyl Alcohol, Compound RRT 1.35 and Compound RRT 1.94: formulations containing sodium carboxymethylcellulose and malic acid (Table 14)
[1] = water-insoluble antioxidants (Table 21)
[2] = water-soluble antioxidants (Table 17)

Compound	Effect of the anti-oxidant on rate of formation of Picosulfate Benzyl Alcohol [1]	Effect of the anti-oxidant on rate of formation of Picosulfate Benzyl Alcohol [2]	Effect of the anti-oxidant on initial rate of formation of Picosulfate Benzyl Alcohol, Compound RRT 1.35 and Compound RRT 1.94
COc1ccc(O)c(C(C)(C)C)c1 [BHA, butylated hydroxyanisole]	effective to reduce the rate of formation		
Cc1cc(C(C)(C)C)c(O)c(C(C)(C)C)c1 [BHT, butylated hydroxytoluene]	effective to reduce the rate of formation		
N[C@@H](Cc1c[nH]cn1)C(=O)O [histidine]		effective to reduce the rate of formation	
O=S([O-])S(=O)(=O)[O-].[K+].[K+] [potassium metabisulfite]			effective to reduce the initial rate of formation
CCCOC(=O)c1cc(O)c(O)c(O)c1 [propyl gallate]	effective to reduce the rate of formation		
O=S([O-])S(=O)(=O)[O-].[Na+].[Na+] [sodium metabisulfite]		effective to reduce the rate of formation	effective to reduce the initial rate of formation
Cc1c(C)c2c(c(C)c1O)CC[C@@](C)(CCC[C@H](C)CCC[C@H](C)CCCC(C)C)O2 [α-tocopherol]	effective to reduce the rate of formation		
